Among the data in patent US10501805B2, “Methods for determining responsiveness to MEK/ERK inhibitors” (CROWN BIOSCIENCE, INC. (TAICANG), priority 2014, dated 2019) are IC50 values, retold here.

Holding throughout (assay): CellTiter-Glo cell viability, IC50 determination
Holding throughout (assay type): cell-based

For one assay, the system named is Hela. To be noted: Homo sapiens, 72 h; Hela cell line; 3-day CTG assay; read-out: Absolute IC50. The gist of the method: (§1)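 Cells were seeded at 4×10^3 cells/well in medium with 10% FBS, left overnight at 37 °C and 5% CO2, then treated in triplicate on Day 0. On Day 3, viability was read by CellTiter-Glo luminescence. Absolute IC50 is where a sigmoidal nonlinear fit crosses 50% surviving rate.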

The test system of another assay is SK-LU-1. To be noted: Homo sapiens, 72 h; SK-LU-1 cell line; 3-day CTG assay; read-out: Absolute IC50. The gist of the method:
as §1

A further assay has as its system BT474. Particulars: Homo sapiens, BT-474, 72 h; BT474 cell line; 3-day CTG assay; read-out: Absolute IC50. The gist of the method:
as §1

For the next assay, the system named is NCI-H1155. To be noted: Homo sapiens, 72 h; NCI-H1155 cell line; 3-day CTG assay; read-out: Absolute IC50. The gist of the method: as §1
The subject of the next assay is SW480. Particulars: Homo sapiens, 72 h; SW480 cell line; 3-day CTG assay; read-out: Absolute IC50. A digest of the protocol:
as §1

`O=C(Nc1ccc2[nH]nc(-c3ccncc3)c2c1)[C@@H]1CCN(CC(=O)N2CCN(c3ccc(-c4ncccn4)cc3)CC2)C1` [SCH772984, (R)-1-(2-oxo-2-(4-(4-(pyrimidin-2-yl)phenyl)piperazin-1-yl)ethyl)-N-(3-(pyridin-4-yl)-1H-indazol-5-yl)pyrrolidine-3-carboxamide]: the IC50 in the assay with Hela came out at 5.38 µM; with SK-LU-1 it was 4.69 µM.

On to `CC(=O)Nc1cccc(-n2c(=O)n(C3CC3)c(=O)c3c(Nc4ccc(I)cc4F)n(C)c(=O)c(C)c32)c1` [Trametinib, N-(3-{3-Cyclopropyl-5-[(2-fluoro-4-iodophenyl)amino]-6,8-dimethyl-2,4,7-trioxo-3,4,6,7-tetrahydropyrido[4,3-d]pyrimidin-1(2H)-yl}phenyl)acetamide], for which the 50% inhibitory concentration (IC50) with BT474 amounted to 39 µM; in the assay on NCI-H1155, 636 µM; with SW480 it was 6.65 µM.
